For data set [1], the system named is human red blood cells (hRBC). The data set can be described thus: Hemolysis of human red blood cells. Format: cell-based. The settings on record: for % hemolysis at 50 μM peptide / % hemolysis at 100 μM: hRBC, 30 min at 37° C. The protocol: (ix) Hemolysis of human red blood cells. The peptides were tested for their hemolytic activities against human red blood cells (hRBC). Fresh hRBC with EDTA were rinsed 3 times with PBS (35 mM phosphate buffer/0.15 M NaCl, pH 7.3) by centrifugation for 10 min at 800 g and resuspended in PBS. Peptides dissolved in PBS were then added to 50 μL of a solution of the stock hRBC in PBS to reach a final volume of 100 μL (final erythrocyte concentration, 5% v/v). The resulting suspension was incubated under agitation for 30 min at 37° C. The samples were then centrifuged at 800 g for 10 min. Release of hemoglobin was monitored by measuring the absorbance of the supernatant at 540 nm. Controls for zero hemolysis (blank) and 100% hemolysis consisted of hRBC suspended in PBS and Triton 1%, respectively.

The test system of data set [2] is Escherichia coli D21. Format: cell-based. The note with it: for Minimal Inhibitory Concentration E. coli (D21): 100% inhibition of growth after 18–20 h.
In data set [3] the test system is Bacillus megaterium Bm11. Format: cell-based. The settings on record: 100% inhibition of growth after 18–20 h.
The subject of data set [4] is Acinetobacter calcoaceticus Ac11. Format: cell-based. The note with it: 100% inhibition of growth after 18–20 h.
Data set [5] deals with Micrococcus Iuteus ATCC 9341. The data set can be described thus: Antibacterial activity (MIC), growth inhibition in LB medium. In kind it is cell-based, Micrococcus luteus. The note with it: 100% inhibition of growth after 18–20 h. How it is done: (viii) Antibacterial activity of the peptides. The antibacterial activity of the diastereomers was examined in sterile 96-well plates (Nunc F96 microtiter plates) in a final volume of 100 μL as follows: Aliquots (50 μl) of a suspension containing bacteria at a concentration of 10^6 Colony-Forming Units (CFU)/ml LB (Lauria broth) medium were added to 50 μL of water or 66% pooled normal human serum in PBS, containing the peptide in 2-fold serial dilutions. Growth inhibition was determined by measuring the absorbance at 492 nm with a Microplate autoreader E1309 (Bio-tek Instruments), following incubation for 18–20 h at 37° C. […] The bacteria used were: Escherichia coli D21, Pseudomonas aeruginosa ATCC 27853, Acinetobacter calcoaceticus Ac11, Salmonella typhimurium LT2, Bacillus megaterium Bm11, Micrococcus Iuteus ATCC 9341, Bacillus subtilis ATCC 6051.

The subject of data set [6] is Pseudomonas aeruginosa ATCC 27853. The note with it: for Minimal Inhibitory Concentration P. aeruginosa (ATCC 27853): 100% inhibition of growth after 18–20 h. How it is done:
(viii) Antibacterial activity of the peptides.
Antibacterial activity of the mixtures was determined as described in Experimental procedures, section (xii).

The test system of data set [7] is Bacillus subtilis ATCC 6051. Format: cell-based. The settings on record: 100% inhibition of growth after 18–20 h.

Square brackets hold non-standard residues; d marks the D form. Peptide text beside a SMILES is read from it.

Regarding `CC[C@H](C)[C@H](NC(=O)[C@H](CCCCN)NC(=O)[C@H]1CCCN1C(=O)[C@@H](NC(=O)[C@H](CC(C)C)NC(=O)[C@H](C)NC(=O)[C@H](Cc1ccccc1)NC(=O)[C@H](Cc1ccccc1)NC(=O)CN)[C@@H](C)CC)C(=O)N[C@H](C(=O)N[C@@H](CO)C(=O)N[C@@H](CO)C(=O)N1CCC[C@H]1C(=O)N[C@@H](CC(C)C)C(=O)N[C@@H](Cc1ccccc1)C(=O)N[C@@H](CCCCN)C(=O)N[C@H](C(=O)N[C@H](CC(C)C)C(=O)N[C@H](CC(C)C)C(=O)N[C@@H](CO)C(=O)N[C@@H](C)C(=O)N[C@H](C(=O)NCCN)C(C)C)[C@@H](C)O)[C@@H](C)CC` [Peptide 2, [D]P^7L^18L^19[1-22]-TApar], in data set [1], the “% hemolysis at 50 μM peptide” value worked out at 0%. Moreover, the “Minimal Inhibitory Concentration E. coli (D21)” value in data set [2] is 12.5 µM. Further, the “Minimal Inhibitory Concentration B. megaterium (Bm11)” value in data set [3] came out at 2.5 µM. Besides, the “Minimal Inhibitory Concentration A. calcoaceticus (Ac11)” value in data set [4] is 12.5 µM.

For `CC[C@H](C)[C@H](NC(=O)[C@H](CCCCN)NC(=O)[C@H]1CCCN1C(=O)[C@@H](NC(=O)[C@H](CC(C)C)NC(=O)[C@H](C)NC(=O)[C@H](Cc1ccccc1)NC(=O)[C@H](Cc1ccccc1)NC(=O)CNC(=O)[C@@H](N)CCCCN)[C@@H](C)CC)C(=O)N[C@H](C(=O)N[C@@H](CO)C(=O)N[C@@H](CO)C(=O)N1CCC[C@H]1C(=O)N[C@@H](CC(C)C)C(=O)N[C@@H](Cc1ccccc1)C(=O)N[C@@H](CCCCN)C(=O)N[C@H](C(=O)N[C@H](CC(C)C)C(=O)N[C@H](CC(C)C)C(=O)N[C@@H](CO)C(=O)N[C@@H](C)C(=O)N[C@H](C(=O)NCCN)C(C)C)[C@@H](C)O)[C@@H](C)CC` [Peptide 4, K^1[D]P^7L^18L^19[1-22]-TApar], in data set [1], the “% hemolysis at 50 μM peptide” value was 0%. The “Minimal Inhibitory Concentration E. coli (D21)” value in data set [2] was found to be 7.5 µM. Besides, in data set [3], the “Minimal Inhibitory Concentration B. megaterium (Bm11)” value is 1.5 µM. Also, the “Minimal Inhibitory Concentration A. calcoaceticus (Ac11)” value in data set [4] is 7.5 µM.

`CC[C@H](C)[C@H](NC(=O)[C@H](CCCCN)NC(=O)[C@H]1CCCN1C(=O)[C@@H](NC(=O)[C@H](CC(C)C)NC(=O)[C@H](C)NC(=O)[C@H](Cc1ccccc1)NC(=O)[C@H](Cc1ccccc1)NC(=O)CNC(=O)[C@H](CCCCN)NC(=O)[C@@H](N)CCCCN)[C@@H](C)CC)C(=O)N[C@H](C(=O)N[C@@H](CO)C(=O)N[C@@H](CO)C(=O)N1CCC[C@H]1C(=O)N[C@@H](CC(C)C)C(=O)N[C@@H](Cc1ccccc1)C(=O)N[C@@H](CCCCN)C(=O)N[C@H](C(=O)N[C@H](CC(C)C)C(=O)N[C@H](CC(C)C)C(=O)N[C@@H](CO)C(=O)N[C@@H](C)C(=O)N[C@H](C(=O)NCCN)C(C)C)[C@@H](C)O)[C@@H](C)CC` [Peptide 5, K^1K^2[D]P^7L^18L^19[1-22]-TApar]: in data set [1], the “% hemolysis at 50 μM peptide” value is given as 0%. The “Minimal Inhibitory Concentration E. coli (D21)” value in data set [2] is 3.5 µM. In addition, in data set [3], the “Minimal Inhibitory Concentration B. megaterium (Bm11)” value is 0.75 µM. Also, the “Minimal Inhibitory Concentration A. calcoaceticus (Ac11)” value in data set [4] is 3.5 µM.

As for `CC[C@@H](C)[C@@H](NC(=O)[C@H](CC(C)C)NC(=O)[C@H](C)NC(=O)[C@@H]1CCCN1C(=O)[C@H](CC(C)C)NC(=O)CNC(=O)[C@@H](NC(=O)[C@@H](NC(=O)[C@H](CC(C)C)NC(=O)[C@H](NC(=O)[C@H](CCCCN)NC(=O)[C@H](CC(C)C)NC(=O)[C@H](NC(=O)[C@H](C)N)C(C)C)C(C)C)[C@@H](C)O)[C@@H](C)O)C(=O)N[C@@H](CO)C(=O)N[C@@H](Cc1c[nH]c2ccccc12)C(=O)N[C@H](C(=O)N[C@H](CCCCN)C(=O)N[C@@H](CCCNC(=N)N)C(=O)NCCN)[C@@H](C)CC` [Peptide 21, [D]-V^5V^8I^17K^21-[4-22]-TAmel], in data set [1], the “% hemolysis at 50 μM peptide” value amounted to 0%. In addition, the “Minimal Inhibitory Concentration E. coli (D21)” value in data set [2] worked out at 21 µM. The “Minimal Inhibitory Concentration B. megaterium (Bm11)” value in data set [3] worked out at 1.2 µM. The “Minimal Inhibitory Concentration A. calcoaceticus (Ac11)” value in data set [4] is 14 µM. Moreover, in data set [5], the “Minimal Inhibitory Concentration M. luteus (ATCC 9341)” value amounted to 28 µM.

Consider `CC(C)C[C@H](NC(=O)[C@H](CC(C)C)NC(=O)[C@@H](CC(C)C)NC(=O)[C@@H](CC(C)C)NC(=O)[C@H](CC(C)C)NC(=O)[C@@H](N)CCCCN)C(=O)N[C@@H](CCCCN)C(=O)N[C@H](CC(C)C)C(=O)N[C@@H](CC(C)C)C(=O)N[C@H](CC(C)C)C(=O)N[C@@H](CC(C)C)C(=O)N[C@@H](CCCCN)C(N)=O` [Peptide 22, [D]-L^3,4,8,10-K3L9] (H-KL[dL][dL]LLK[dL]L[dL]LK-NH2), for which the “Minimal Inhibitory Concentration P. aeruginosa (ATCC 27853)” value in data set [6] is 125 µM. In data set [1] (hRBC dose response), the “hemolytic activity in comparison to melittin (fold less)” value is recorded as > 60 fold. Besides, the “% hemolysis at 100 μM” value in data set [1] is on record as 58%. Further, the “Minimal Inhibitory Concentration B. subtilis (ATCC 6051)” value in data set [7] was found to be 1.1 µM. The “Minimal Inhibitory Concentration E. coli (D21)” value in data set [2] worked out at 9 µM. Further, the “Minimal Inhibitory Concentration B. megaterium (Bm11)” value in data set [3] is 0.7 µM. In addition, in data set [4], the “Minimal Inhibitory Concentration A. calcoaceticus (Ac11)” value is 20 µM.

Take `CC(C)C[C@H](NC(=O)[C@H](CCCCN)NC(=O)[C@@H](CC(C)C)NC(=O)[C@@H](CC(C)C)NC(=O)[C@H](CC(C)C)NC(=O)[C@@H](N)CCCCN)C(=O)N[C@@H](CCCCN)C(=O)N[C@H](CC(C)C)C(=O)N[C@@H](CCCCN)C(=O)N[C@H](CC(C)C)C(=O)N[C@@H](CC(C)C)C(=O)N[C@@H](CCCCN)C(N)=O` [Peptide 24, [D]-L^3,4,8,10-K5L7] (H-KL[dL][dL]KLK[dL]K[dL]LK-NH2): the “Minimal Inhibitory Concentration P. aeruginosa (ATCC-27853) 0% Serum” value in data set [6] (0% Serum) is 10 µM. Further, in data set [6] (33% pooled human serum), the “Minimal Inhibitory Concentration P. aeruginosa (ATCC-27853) 33% Serum” value turned out to be 10 µM. The “Minimal Inhibitory Concentration P. aeruginosa (ATCC 27853)” value in data set [6] amounted to 10 µM. Also, in data set [1], the “% hemolysis at 100 μM” value is given as 0%. Moreover, the “Minimal Inhibitory Concentration B. subtilis (ATCC 6051)” value in data set [7] turned out to be 2 µM. Besides, the “Minimal Inhibitory Concentration E. coli (D21) 0% Serum” value in data set [2] (0% Serum) was found to be 7 µM. Moreover, the “Minimal Inhibitory Concentration E. coli (D21) 33% Serum” value in data set [2] (33% pooled human serum) was 7 µM. For the same compound, in data set [2], the “Minimal Inhibitory Concentration E. coli (D21)” value amounted to 7 µM. Besides, in data set [3], the “Minimal Inhibitory Concentration B. megaterium (Bm11)” value is 0.25 µM. Also, the “Minimal Inhibitory Concentration A. calcoaceticus (Ac11)” value in data set [4] is 20 µM.

`CC(C)C[C@H](NC(=O)[C@H](CCCCN)NC(=O)[C@@H](CC(C)C)NC(=O)[C@@H](CC(C)C)NC(=O)[C@H](CCCCN)NC(=O)[C@@H](N)CCCCN)C(=O)N[C@@H](CCCCN)C(=O)N[C@H](CC(C)C)C(=O)N[C@@H](CCCCN)C(=O)N[C@H](CC(C)C)C(=O)N[C@@H](CCCCN)C(=O)N[C@@H](CCCCN)C(N)=O` [Peptide 25, [D]-L^3,4,8,10-K7L5] (H-KK[dL][dL]KLK[dL]K[dL]KK-NH2; N-terminus assumed): the “Minimal Inhibitory Concentration P. aeruginosa (ATCC 27853)” value in data set [6] is >200 µM. In addition, the “% hemolysis at 100 μM” value in data set [1] came out at 0%. In addition, the “Minimal Inhibitory Concentration B. subtilis (ATCC 6051)” value in data set [7] came out at 100 µM. Further, in data set [2], the “Minimal Inhibitory Concentration E. coli (D21)” value came out at 80 µM. Further, in data set [3], the “Minimal Inhibitory Concentration B. megaterium (Bm11)” value came to 1 µM. In data set [4], the “Minimal Inhibitory Concentration A. calcoaceticus (Ac11)” value is 200 µM.

On to `CC[C@H](C)[C@@H]1NC(=O)[C@H](CCCCN)NC(=O)[C@H]2CCCN2C(=O)[C@H]([C@@H](C)CC)NC(=O)[C@H](CC(C)C)NC(=O)[C@H](C)NC(=O)[C@H](Cc2ccccc2)NC(=O)[C@H](Cc2ccccc2)NC(=O)CNC(=O)[C@H](CCCCN)NC(=O)[C@H](CCCCN)NC(=O)[C@H](CCCCN)NC(=O)[C@@H](N)CSSC[C@@H](C(=O)O)NC(=O)[C@H](C(C)C)NC(=O)[C@H](C)NC(=O)[C@H](CO)NC(=O)[C@@H](CC(C)C)NC(=O)[C@@H](CC(C)C)NC(=O)[C@H]([C@@H](C)O)NC(=O)[C@H](CCCCN)NC(=O)[C@H](Cc2ccccc2)NC(=O)[C@H](CC(C)C)NC(=O)[C@@H]2CCCN2C(=O)[C@H](CO)NC(=O)[C@H](CO)NC(=O)[C@H]([C@@H](C)CC)NC1=O` [Peptide 88, Cyclic K^1K^2K^3[D]P^7L^18L^19[1-22]-par], for which, in data set [1], the “% hemolysis at 100 μM” value was determined as 0%. The “Minimal Inhibitory Concentration E. coli (D21)” value in data set [2] is 7.5 µM. Also, in data set [3], the “Minimal Inhibitory Concentration B. megaterium (Bm11)” value amounted to 2 µM.

The record behind these values is patent publication US7001983B1, “Antipathogenic synthetic peptides and compositions comprising them” (priority 1997, dated 2006).
